Where two headings read alike, the source gives them in different places.
Experiments:
[1] = target: human KHK-A (Homo sapiens (Human), UniProt P50053); experiment: KHK Biochemical Assay (IC50), ADP-Glo, KHK-A; settings: average of at least two separate assays
Procedure, shortened: (§1)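 His-tagged enzyme expressed in BL21 (DE3), Ni-NTA purified. Compounds, serially diluted 1:3 in DMSO, pre-incubated 30 min with enzyme in 50 mM Hepes pH 7.4, 140 mM KCl, 5 mM MgCl2, 0.01% Triton-X, then ATP and fructose added; 4 h at room temperature. ADP formation read by ADP-Glo luminescence.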

[2] = target: KHK-C expressed in NRK-52E cells (Homo sapiens (Human), UniProt P50053); experiment: KHK-C Cell-based Assay (EC50), NRK CTG, fructose-mediated ATP-depletion
Sequence of KHK-C expressed in NRK-52E cells (P50053 whole entry): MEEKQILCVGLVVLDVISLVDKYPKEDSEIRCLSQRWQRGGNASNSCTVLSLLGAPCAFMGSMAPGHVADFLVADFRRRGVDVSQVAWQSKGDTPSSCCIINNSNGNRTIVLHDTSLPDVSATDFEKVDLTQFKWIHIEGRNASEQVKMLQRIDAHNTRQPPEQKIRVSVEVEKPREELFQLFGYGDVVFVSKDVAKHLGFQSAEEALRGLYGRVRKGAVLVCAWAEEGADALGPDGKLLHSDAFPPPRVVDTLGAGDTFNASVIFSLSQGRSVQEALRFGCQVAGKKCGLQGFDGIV

[3] = target: human KHK-C (Homo sapiens (Human), UniProt P50053); experiment: KHK Biochemical Assay (IC50), ADP-Glo, KHK-C; settings: average of at least two separate assays
Sequence of human KHK-C (P50053 whole entry): as above
Procedure, shortened: as §1

[4] = system: HepG2 cells; experiment: F1P Cell-Based Assay (EC50), 13C6-fructose-1-phosphate in HepG2 cells (cell culture medium or 50% human plasma); settings: Homo sapiens
[5] = HepG2, HepG2 cells, 50% human plasma, read-out: F1P 50% HP EC50
[6] = HepG2, read-out: F1P 10% FBS EC50, HepG2 cells, cell culture medium (10% FBS)

Sequence of human KHK-A (P50053 other isoform, or with tags, fused parts or gaps): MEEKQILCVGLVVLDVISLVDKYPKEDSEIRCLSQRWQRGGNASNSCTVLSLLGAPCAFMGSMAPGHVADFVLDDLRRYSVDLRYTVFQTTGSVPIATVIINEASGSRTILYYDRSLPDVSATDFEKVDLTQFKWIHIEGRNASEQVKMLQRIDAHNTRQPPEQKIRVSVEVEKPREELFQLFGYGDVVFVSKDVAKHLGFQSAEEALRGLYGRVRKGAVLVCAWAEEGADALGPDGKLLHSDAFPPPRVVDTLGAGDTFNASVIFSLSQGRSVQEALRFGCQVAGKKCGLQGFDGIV

IC50 ([1]; ADP-Glo) [nM] | EC50 [2] [nM] | IC50 ([3]; ADP-Glo) [nM] | EC50 [4, 5] [nM] | EC50 [4, 6] [nM] | IC50 [1] [nM] | IC50 [3] [nM] | Compound
4.6 | 2 | 0.9 | 13.4 | 4.8 | – | – | C[C@H]1CCN1c1nc(-c2ccc(C3(N)COC3)cc2)c2c(n1)C(F)(F)CC2 [Example 160, (S)-3-(4-(7,7-difluoro-2-(2-methylazetidin-1-yl)-6,7-dihydro-5H-cyclopenta[d]pyrimidin-4-yl)phenyl)oxetan-3-amine]
1.2 | 2.1 | 0.9 | 9.3 | 3.9 | – | – | C[C@H]1CCN1c1nc2c(c(-c3ccc(C4(N)CCC4)cc3)n1)CCC2 [Example 312, (S)-1-(4-(2-(2-methylazetidin-1-yl)-6,7-dihydro-5H-cyclopenta[d]pyrimidin-4-yl)phenyl)cyclobutan-1-amine]
6.4 | 97.2 | 4.1 | 42.9 | 27.4 | – | – | C[C@H]1[C@H](O)CN1c1nc(-c2cc3c(c(S(N)(=O)=O)c2)OCC3)c2c(n1)C(F)(F)CC2 [Example 351, 5-(7,7-difluoro-2-((2S,3R)-3-hydroxy-2-methylazetidin-1-yl)-6,7-dihydro-5H-cyclopenta[d]pyrimidin-4-yl)-2,3-dihydrobenzofuran-7-sulfonamide]
– | 4.3 | – | 23.8 | 7.6 | 5.3 | 1.8 | C[C@H]1[C@H](F)CN1c1nc(-c2ccc(C3(N)COC3)cc2)c2c(n1)C(F)(F)CC2 [Example 468, 3-(4-(7,7-difluoro-2-((2S,3R)-3-fluoro-2-methylazetidin-1-yl)-6,7-dihydro-5H-cyclopenta[d]pyrimidin-4-yl)phenyl)oxetan-3-amine]
– | 5 | – | 51 | 13.4 | 6.3 | 1.9 | C[C@@H]1N(c2nc(-c3ccc(C4(N)COC4)cc3)c3c(n2)C(F)(F)CC3)CC1(F)F [Example 470, (S)-3-(4-(2-(3,3-difluoro-2-methylazetidin-1-yl)-7,7-difluoro-6,7-dihydro-5H-cyclopenta[d]pyrimidin-4-yl)phenyl)oxetan-3-amine]
– | 4.1 | – | 44.4 | 28.7 | 10.6 | 0.1 | C[C@H]1[C@H](O)CN1c1nc(-c2ccc3c(c2)CC[C@]32NC(=O)N(C)C2=O)c2c(n1)C(F)(F)CC2 [Example 488, (58)-5′-[7,7-difluoro-2-[(2S,3R)-3-hydroxy-2-methyl-azetidin-1-yl]-5,6-dihydrocyclopenta[d]pyrimidin-4-yl]-3-methyl-spiro[imidazolidine-5,1′-indane]-2,4-dione]
– | 11.5 | – | 34.7 | 9.9 | 10.1 | 2.3 | C[C@H]1C[C@H](C)N1c1nc(-c2ccc(C3(N)COC3)cc2)c2c(n1)C(F)(F)CC2 [Example 504, 3-(4-(2-((2S,4S)-2,4-dimethylazetidin-1-yl)-7,7-difluoro-6,7-dihydro-5H-cyclopenta[d]pyrimidin-4-yl)phenyl)oxetan-3-amine]
– | 8 | – | 24.6 | 3.5 | 0.2 | 1.1 | COc1ccc(-c2nc(N3C[C@@H](F)[C@@H]3C)nc3c2CCC3(F)F)cc1[S@@](C)(=N)=O [Example 561, (S)-(5-(7,7-difluoro-2-((2S,3R)-3-fluoro-2-methylazetidin-1-yl)-6,7-dihydro-5H-cyclopenta[d]pyrimidin-4-yl)-2-methoxyphenyl)(imino)(methyl)-λ^6-sulfanone]
– | 5.8 | – | 3.6 | 1.1 | 0.3 | 1.4 | COc1ccc(-c2nc(N3C[C@H](F)[C@@H]3C)nc3c2CCC3(F)F)cc1[S@@](C)(=N)=O [Example 562, (S)-(5-(7,7-difluoro-2-((2S,3S)-3-fluoro-2-methylazetidin-1-yl)-6,7-dihydro-5H-cyclopenta[d]pyrimidin-4-yl)-2-methoxyphenyl)(imino)(methyl)-λ^6-sulfanone]
– | 5.1 | – | 6.7 | 0.6 | 0.2 | 1.7 | COc1ccc(-c2nc(N3CC(F)(F)[C@@H]3C)nc3c2CCC3(F)F)cc1[S@@](C)(=N)=O [Example 563, (S)-(5-(2-((S)-3,3-difluoro-2-methylazetidin-1-yl)-7,7-difluoro-6,7-dihydro-5H-cyclopenta[d]pyrimidin-4-yl)-2-methoxyphenyl)(imino)(methyl)-λ^6-sulfanone]
– | 98.1 | – | 142 | 38.5 | 11.6 | 24.4 | C[C@H]1[C@H](O)CN1c1nc(-c2ccc(OC(F)(F)F)c(S(C)(=N)=O)c2)c2c(n1)C(F)(F)CC2 (stereo partly drawn) [Example 564, (5-(7,7-difluoro-2-((2S,3R)-3-hydroxy-2-methylazetidin-1-yl)-6,7-dihydro-5H-cyclopenta[d]pyrimidin-4-yl)-2-(trifluoromethoxy)phenyl)(imino)(methyl)-λ^6-sulfanone]
– | 19.3 | – | 204 | 50.3 | 32.8 | 2.6 | C[C@H]1[C@H](O)CN1c1nc(-c2ccc3c(c2)OCC32NC(=O)OC2(C)C)c2c(n1)C(F)(F)CC2 (stereo partly drawn) [Example 565, 6-(7,7-difluoro-2-((2S,3R)-3-hydroxy-2-methylazetidin-1-yl)-6,7-dihydro-5H-cyclopenta[d]pyrimidin-4-yl)-5′,5′-dimethyl-2H-spiro[benzofuran-3,4′-oxazolidin]-2′-one]
– | 6.4 | – | 71 | 67.8 | 16.7 | 0.1 | C[C@H]1[C@H](O)CN1c1nc(-c2ccc3c(c2)CC[C@]32NC(=O)N(CCO)C2=O)c2c(n1)C(F)(F)CC2 [Example 686, (58)-5′-[7,7-difluoro-2-[(2S,3R)-3-hydroxy-2-methyl-azetidin-1-yl]-5,6-dihydrocyclopenta[d]pyrimidin-4-yl]-3-(2-hydroxyethyl)spiro[imidazolidine-5,1′-indane]-2,4-dione]
– | 6.4 | – | 141 | 22.4 | 47.2 | 0.2 | CCCN1C(=O)NC2(COc3cc(-c4nc(N5C[C@@H](O)[C@@H]5C)nc5c4CCC5(F)F)ccc32)C1=O (stereo partly drawn) [Example 693, 6-[7,7-difluoro-2-[(2S,3R)-3-hydroxy-2-methyl-azetidin-1-yl]-5,6-dihydroeyelopenta[d]pyrimidin-4-yl]-3′-propyl-spiro[2H-benzofuran-3,5′-imidazolidine]-2′,4′-dione]
– | 17.2 | – | 109 | 54.3 | 24.5 | 0.4 | C[C@H]1[C@H](O)CN1c1nc(-c2ccc3c(c2)OCC32NC(=O)N(C3COC3)C2=O)c2c(n1)C(F)(F)CC2 (stereo partly drawn) [Example 694, 6-[7,7-difluoro-2-[(2S,3R)-3-hydroxy-2-methyl-azetidin-1-yl]-5,6-dihydroeyelopenta[d]pyrimidin-4-yl]-3′-(oxetan-3-yl)spiro[2H-benzofuran-3,5′-imidazolidine]-2′,4′-dione]
– | 10.3 | – | 213 | 27.1 | 16.2 | 0.5 | C[C@H]1[C@H](O)CN1c1nc(-c2ccc3c(c2)OCC32CN(C)C(=O)N2)c2c(n1)C(F)(F)CC2 (stereo partly drawn) [Example 695, 6-[7,7-difluoro-2-[(2S,3R)-3-hydroxy-2-methyl-azetidin-1-yl]-5,6-dihydroeyelopenta[d]pyrimidin-4-yl]-1′-methyl-spiro[2H-benzofuran-3,4′-imidazolidine]-2′-one]
– | 32.8 | – | 492 | 85.2 | 88.7 | 0.3 | C[C@H]1[C@H](O)CN1c1nc(-c2ccc3c(c2)OCC32NC(=O)N(CC(F)(F)F)C2=O)c2c(n1)C(F)(F)CC2 (stereo partly drawn) [Example 699, 6-[7,7-difluoro-2-[(2S,3R)-3-hydroxy-2-methyl-azetidin-1-yl]-5,6-dihydrocyclopenta[d]pyrimidin-4-yl]-3′-(2,2,2-trifluoroethyl)spiro[2H-benzofuran-3,5′-imidazolidine]-2′,4′-dione]
– | 37.3 | – | 250 | 163 | 16.1 | 0.2 | C[C@H]1[C@H](O)CN1c1nc(-c2ccc3c(c2)OCC32CN(CCO)C(=O)N2)c2c(n1)C(F)(F)CC2 (stereo partly drawn) [Example 700, 6-[7,7-difluoro-2-[(2S,3R)-3-hydroxy-2-methyl-azetidin-1-yl]-5,6-dihydrocyclopenta[d]pyrimidin-4-yl]-1′-(2-hydroxyethyl)spiro[2H-benzofuran-3,4′-imidazolidine]-2′-one]
– | > 500 | – | > 500 | > 500 | > 100 | > 100 | COc1c(Cl)cc(-c2nc(N3C[C@@H](O)[C@@H]3C)nc3c2CCC3(F)F)cc1S(C)(=N)=O (stereo partly drawn) [Example 717, (3-chloro-5-(7,7-difluoro-2-((2S,3R)-3-hydroxy-2-methylazetidin-1-yl)-6,7-dihydro-5H-cyclopenta[d]pyrimidin-4-yl)-2-methoxyphenyl)(imino)(methyl)-λ^6-sulfanone]
– | 17.6 | – | 23.7 | 11.5 | 5.1 | 4.2 | Cc1ccc(-c2nc(N3C[C@@H](O)[C@@H]3C)nc3c2CCC3(F)F)cc1S(C)(=N)=O (stereo partly drawn) [Example 718, (5-(7,7-difluoro-2-((2S,3R)-3-hydroxy-2-methylazetidin-1-yl)-6,7-dihydro-5H-cyclopenta[d]pyrimidin-4-yl)-2-methylphenyl)(imino)(methyl)-λ^6-sulfanone]

— patent US12410160B2 (Gilead Sciences, Inc., priority 2021, dated 2025)
